Measurements: patent US20160058735A1, “METHODS OF TREATING HYPERHIDROSIS” (Dermira, Inc., priority 2014, published 2016)

Legend:
[1] = test system: patients with severe primary axillary hyperhidrosis; assay: Phase 2a clinical trial: axillary sweat production; format: in vivo, human
Description: (§1) The completed Phase 2a clinical trial was a randomized, double-blind study in 38 patients with severe primary axillary hyperhidrosis.
Efficacy was evaluated based on axillary sweat production and disease severity. Assessments were conducted approximately weekly during the four-week treatment period and two weeks after the end of this treatment period. Disease severity was measured using a widely-used patient-reported outcome tool called the Hyperhidrosis Disease Severity Scale, or HDSS, wherein patients rate the severity of their disease on a four-point scale. Patients who rate the severity of their disease as a three or a four on the HDSS are considered to have severe disease, while those who rate it as one or two are considered to have mild or moderate disease. […] Trial inclusion criteria required that prior to the start of treatment, all patients produce at least 50 mg of sweat in each axilla over a five-minute period.

[2] = test system: patients with severe primary axillary hyperhidrosis; assay: Study DRM04-HH01 (Phase 2b): adverse events
Description: Assessments were conducted approximately weekly during the four-week treatment period and the two-week period after the end of this treatment period. […] Trial inclusion criteria required that prior to the start of treatment, all patients produce at least 50 mg of sweat in each axilla over a five-minute period.

[3] = test system: patients with severe primary axillary hyperhidrosis; assay: Phase 2a clinical trial: disease severity by Hyperhidrosis Disease Severity Scale (HDSS); format: in vivo, human; conditions: Formulation A, 2% and 4% pooled; first on-treatment assessment, about one week
Description: as §1
Patients were instructed to apply the study product once daily for four weeks using wipes saturated with either the topical formulation of the reference agent or vehicle only. Efficacy was evaluated based on axillary sweat production and disease severity. Assessments were conducted approximately weekly during the four-week treatment period and two weeks after the end of this treatment period. Disease severity was measured using a widely-used patient-reported outcome tool called the Hyperhidrosis Disease Severity Scale, or HDSS, wherein patients rate the severity of their disease on a four-point scale. Patients who rate the severity of their disease as a three or a four on the HDSS are considered to have severe disease, while those who rate it as one or two are considered to have mild or moderate disease. All 38 patients enrolled in the clinical trial rated the severity of their disease as a three or a four on the HDSS prior to the start of treatment. Trial inclusion criteria required that prior to the start of treatment, all patients produce at least 50 mg of sweat in each axilla over a five-minute period.

C[N+]1(C)CCC(OC(=O)C(O)(c2ccccc2)C2CCCC2)C1.[Br-] (stereo not drawn) [reference agent, threo-glycopyrronium bromide]
sweat production on average lower than at the start of therapy ([1]; Formulation A, nine patients, end of four-week treatment period): 61%
reversibility of effect on sweating and disease severity ([1]; two weeks following cessation of therapy): appeared to be reversible
patients who withdrew from the study due to adverse events ([2]; 1% cohort): 2.6%
patients who withdrew from the study due to adverse events ([2]; 2% cohort): 5.0%
patients who withdrew from the study due to adverse events ([2]; 3% cohort): 2.5%
patients who withdrew from the study due to adverse events ([2]; 4% cohort): 20.0%
most common TEAEs ([2]; in vivo): dry mouth, upper respiratory tract infection, dry skin and blurred vision
treatment-related serious adverse events ([2]; in vivo): No treatment-related serious adverse events were reported
patients reporting improvement in disease severity (HDSS) from severe to mild or moderate [3]: Nine of 12
